# Measurements from US8013190B2, “Chemical composition with borane clusters for use as an HIV protease inhibitor” (Vysoka Skola Chemicko-Technologicka V Praze, priority 2004, dated 2011).
# Where two headings read alike, the source gives them in different places.
# Experiments:
# [1] = target: T1, HIV PR K4 (L10I, L24I, L33F, M46L, I54V, L63P, A71V, V82A, I84V) (Human immunodeficiency virus type 1 group M subtype B, UniProt P12497, A559V/I542V/I572V/L498I/L512I/L521F/L551P/M534L/V570A); type: biochemical, HIV-1; details: read-out: Inhibition constants Ki
# T1 construct: using pure recombinant HIV protease and chromogenic peptide substrate
# Experimental: (§1) Initially, known and novel compounds were tested as to their ability to inhibit specific activitity of HIV protease in vitro using pure recombinant HIV protease and chromogenic peptide substrate derived from amino acid sequence of one of the sites of cleavage of viral polyprotein. Testing was performed using the method published by one of the co-inventors of this invention (Konvalinka, J., Litera, J., Weber, J., Vondrásek, J., Hradilek, M., Soucek, M., Pichová, I., Majer, P., Strop, P., Sedlácek, J., Heuser, A. -M., Kottler, H. and Kraeusslich, H. -G. (1997). Eur. J. Biochem. 250, 559-566). […] The reaction course is observed spectrophotometrically as decrease of the absorbance at 305 nm.
# [2] = target: T2, HIV PR 15 (M46I, A71V, V82T, I84V) (Human immunodeficiency virus type 1 group M subtype B, UniProt P12497, A559V/I572V/M534I/V570T); type: biochemical, HIV-1; details: read-out: Inhibition constants Ki
# T2 construct: using pure recombinant HIV protease and chromogenic peptide substrate
# Experimental: as §1
# [3] = target: T3, HIV PR 5/1 (L10I, I15V, E35D, N37S, R41K, I62V, L63P, A71V, G73S, L90M) (Human immunodeficiency virus type 1 group M subtype B, UniProt P12497, A559V/E523D/G561S/I503V/I550V/L498I/L551P/L578M/N525S/R529K); type: biochemical, HIV-1; details: read-out: Inhibition constants Ki
# T3 construct: using pure recombinant HIV protease and chromogenic peptide substrate
# Experimental: as §1
# [4] = target: T4, wild type HIV-1 protease (Human immunodeficiency virus type 1 group M subtype B, UniProt P12497); assay: Inhibition of pure recombinant HIV protease with chromogenic peptide substrate (spectrophotometric); type: biochemical
# T4 construct: using pure recombinant HIV protease and chromogenic peptide substrate
# Experimental: as §1
# The mechanism of action of tested compounds (inhibition type) were determined from dependence of initial reaction rate on substrate concentration at different inhibitor concentrations (Lineweaver-Burke plot). Dependence of initial enzyme reaction rate on substrate concentration is measured at various inhibitor concentrations (here 0 and 15 μM). The measurements were performed at pH 4.7, 37° C. in 0.1 M acetate buffer containing 0.3M NaCl. y axis: reciprocal value of initial enzyme reaction rate, x axis: reciprocal value of substrate concentration (mol/dm^3).
# [5] = tested on: HIV proviral clone NL 4-3; assay: HIV infectivity inhibition in tissue cultures transfected with proviral clone NL4-3, titration on TZM reporter cells; type: cell-based; details: for effect on virus infectivity: 293 T cells transfected by NL 4-3, FIG. 5
# Experimental: The antiviral activity of compounds GB-8, GB-12 and GB-16 in tissue cultures was analyzed using two variations of a published procedure (Benyoucef S, Hober D, Shen L, Ajana F, Gerard Y, Bocket-Mouton L, Mouton Y, Wattre P. (1996) Microbiol Immunol. 40(5), 381-8). The production of infectious HIV particles and influences of HIV protease inhibitors on the infectivity was directly determined by these assays.
# For testing of compounds GB-8, GB-12 and GB-16, HeLa cells were transfected by DNA encoding pNL-43 strain of HIV virus that contained beta-galactosidase gene in the site of viral nef gene. All transfections were performed in duplicate. Medium was replaced the next day following the transfection, and protease inhibitors dissolved in DMSO were added into fresh medium. The control was incubated in the same DMSO concentration as tested cells. The supernatant of transfected cells was used in next round for reporter cells infection. Infectivity was quantified by enzyme beta-galactosidase activity in infected cells and the infected cells were visualised using chromogenic beta-galactosidase substrate (X-gal). Viral proteins of newly created virions were separated by SDS PAGE and immunochemically visualised using antibodies against HIV capsid protein (Western blot).
# In paralel experiments, HIV was produced in 293 T cells transfected by proviral clone NL 4-3. All transfections were performed in duplicate. Medium was replaced the next day following the transfection, and protease inhibitors dissolved in DMSO were added into fresh medium. The control was incubated in the same DMSO concentration as tested cells. Viral infectivity was quantified by titration of the cell supernatant by TZM cell (reporter cells bearing in their genome LTR promotor from HIV bound with beta-galactosidase gene, activated by Tat protein produced by the virus). After two days following the infection the reporter cells were lysed and fixed by methanol/acetone mixture. Beta-galactosidase activity of infected cells was visualised by blue color after chromogenic substrate X-gal addition.
# [6] = target: cathepsin D (Homo sapiens, UniProt P07339); assay: Inhibition of recombinant protease, chromogenic substrate; type: biochemical
# Sequence of cathepsin D (P07339 65-412, species assumed): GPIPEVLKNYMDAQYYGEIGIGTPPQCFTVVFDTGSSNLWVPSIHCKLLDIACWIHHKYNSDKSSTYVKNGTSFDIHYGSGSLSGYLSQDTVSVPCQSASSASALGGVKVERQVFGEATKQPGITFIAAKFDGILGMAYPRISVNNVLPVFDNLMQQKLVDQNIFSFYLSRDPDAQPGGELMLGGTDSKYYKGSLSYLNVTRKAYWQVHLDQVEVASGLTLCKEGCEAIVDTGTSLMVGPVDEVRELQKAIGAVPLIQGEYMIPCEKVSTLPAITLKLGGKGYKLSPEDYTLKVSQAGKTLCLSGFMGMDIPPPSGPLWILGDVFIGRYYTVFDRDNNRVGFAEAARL
# Experimental: as §1, with “nm. IC50 values of tested compounds were calculated from experimental data, as taught in (Majer, P., Urban, J., Gregorová, E., Konvalinka, J., Novek, P., Stehlíková, J., Andreánsky, M., Sedlácek, J. and Strop, P. (1993) Arch.Biochem.Biophys. 304, 1-8) and are shown in Table 1.” for “nm.”
# (§2) Inhibition testing of GB-16 was performed also for wild type HIV-2 protease, mutant HIV-1 PR 3/1 and cathepsin D. Results are shown in Table 2.
# [7] = tested on: mutant HIV-1 PR 3/1; assay: as above; type: biochemical
# Experimental: as §1, with “nm. IC50 values of tested compounds were calculated from experimental data, as taught in (Majer, P., Urban, J., Gregorová, E., Konvalinka, J., Novek, P., Stehlíková, J., Andreánsky, M., Sedlácek, J. and Strop, P. (1993) Arch.Biochem.Biophys. 304, 1-8) and are shown in Table 1.” for “nm.”
# as §2
# [8] = target: T5, wild-type HIV-2 PR (Human immunodeficiency virus type 2 subtype A, UniProt P04584); assay: as above; type: biochemical
# T5 construct: performed also for wild type HIV-2 protease, mutant HIV-1 PR 3/1 and cathepsin D
# T5 sequence (P04584 514-612 limits assumed): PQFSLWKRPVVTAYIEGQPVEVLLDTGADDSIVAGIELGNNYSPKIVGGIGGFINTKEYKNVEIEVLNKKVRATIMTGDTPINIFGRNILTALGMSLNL
# Experimental: as §1, with “nm. IC50 values of tested compounds were calculated from experimental data, as taught in (Majer, P., Urban, J., Gregorová, E., Konvalinka, J., Novek, P., Stehlíková, J., Andreánsky, M., Sedlácek, J. and Strop, P. (1993) Arch.Biochem.Biophys. 304, 1-8) and are shown in Table 1.” for “nm.”
# as §2
# [9] = tested on: virus strain NL4-3; assay: HIV infectivity inhibition in PM1 cell cultures infected by NL4-3, titration on TZM-cells; type: cell-based; details: 6,6 to 60 μM, 40 h
# Experimental: For testing of compound GB-48, PM1 cell cultures infected by virus strain NL4-3 were split 2 days post infection 1 to 10 with fresh, uninfected cells. To remove unbound virus cells were washed with pre-warmed medium four hours post infection. Cells were subsequently incubated for 40 h with a GB-48 dissolved in DMSO at a final concentration from 0.74 to 60 μM. Control cells were incubated with the same amount of DMSO as the GB-48 treated cells. To harvest the free virus cells were centrifuged at 1500 rpm for 5 min and 10 μl of the supernatants were used for titration. Changes in viral infectivity were analysed by titration of the supernatants on TZM-cells as described above. Two days post infection TZM-cells were lysed and fixed with methanol/aceton. The beta-galactosidase activity of infected cells was visualised by blue stain upon X-Gal addition. All titrations were done in duplicate assays. The viral titer and standard deviation was calculated from three independent titrations. Example of the activity testing is given on FIG. 6. […] At these concentrations drops in viral titer of at least 3 orders of magnitude in virus infectivity were observed.
# [10] = wild type HIV-1 protease, pH 4.7, Table 1 values in nM
# [11] = wild type, Table 3, read-out: Inhibition constants Ki
# [12] = wild type HIV-1 protease, pH 4.7, Table 1 values in μM
substance,measurement,setting,value
"[(1,2-C2B9H10)-3,3′-Co(1′,2′-C2B9H11)-8-(OCH2CH2)2NH-CH2CH2OCH2CH2-8″-O-(1″,2″-C2B9H10)-3″,3′″-Co(1′″,2′″-C2B9H11)]Na [GB-80]",Ki,[1],13 nM
same,Ki,[2],22 nM
same,Ki,[3],40 nM
same,IC50,[4]; [10],140 nM
same,Ki,[4]; [11],4.9 nM
"[8,8′-μ-O-(1,2-C2B9H10)(1′,2′-C2B9H10)-3,3′-Co]Na [GB-12]",effect on virus infectivity,[5],block the virus infectivity
same,IC50,[4]; [12],5200 nM
"[8-(OH-1,2-C2B9H10)(1′,2′-C2B9H11)-3,3′-Co]Na.nH2O [GB-8]",effect on virus infectivity,[5],block the virus infectivity
same,IC50,[4]; [12],13500 nM
"[8-(O-P(═O)(OH)2)-(1,2-C2B9H10)(1′,2′-C2B9H11)-3,3′-Co]Na.nH2O [GB-16]","HIV infectivity, % of the initial value","[5]; 10 μM solution, 293 T cells / TZM reporter cells",~27%
same,effect on virus infectivity,[5],block the virus infectivity
same,IC50,[6],32900 nM
same,Ki,[6],17200 nM
same,IC50,[7],13400 nM
same,Ki,[7],3600 nM
same,IC50,[8],15400 nM
same,Ki,[8],7400 nM
same,"mechanism of action (inhibition type), Lineweaver-Burke plot","[4]; inhibitor 0 and 15 μM, pH 4.7, 37° C.",competitive inhibitor
same,IC50,[4]; [12],6200 nM
same,IC50,"[4]; wild-type HIV-1 PR, Table 2",6200 nM
same,Ki,"[4]; wild-type HIV-1 PR, Table 2, read-out: Ki",16300 nM
"[(1,2-C2B9H10)-3,3′-Co(1′,2′-C2B9H11)-8-(OCH2CH2)2NH(CH2CH2CH2CH3)-CH2CH2OCH2CH2-8″-O-(1″,2″-C2B9H10)-3″,3′″-Co(1′″,2′″-C2B9H11)]Na [GB-48]",Ki,[1],24 nM
same,Ki,[2],9 nM
same,Ki,[3],4.6 nM
same,drops in viral titer,[9],at least 3 orders of magnitude
same,effect on virus infectivity,[9],strongly inhibited virus infectivity
same,IC50,[4]; [10],100 nM
same,Ki,[4]; [11],2.2 nM
"[(1,2-C2B9H10)-3,3′-Co(1′,2′-C2B9H11)-8-(OCH2CH2)2(-3-O-(C6H3(1-OH))-5-O)-CH2CH2OCH2CH2-8″-O-(1″,2″-C2B9H10)-3″,3′″-Co(1′″,2′″-C2B9H11)]Na2 [GB-77]",IC50,[4]; [10],100 nM
"[(8-((3-OH)(5-OH)-C6H3O-(CH2-CH2O)2)-1,2-C2B9H10)(1′,2′-C2B9H11)-3,3′-Co]Na [GB-76]",IC50,[4]; [12],2300 nM
"[(8-((2-CH2-C6H5)-C6H4O-(CH2-CH2O)2)-1,2-C2B9H10)(1′,2′-C2B9H11)-3,3′-Co]Na [GB-42]",IC50,[4]; [10],100 nM
"[(1,2-C2B9H10)-3,3′-Co(1′,2′-C2B9H11)-8-(OCH2CH2)2N(CH2CH3)2-CH2CH2OCH2CH2-8″-O-(1″,2″-C2B9H10)-3″,3′″-Co(1′″,2′″-C2B9H11)]Na [GB-50]",IC50,[4]; [10],160 nM
"[(8-((4-C(C6H5)3)-C6H4O-(CH2-CH2O)2)-1,2-C2B9H10)(1′,2′-C2B9H11)-3,3′-Co]Na [GB-43]",IC50,[4]; [10],210 nM
"[(1,2-C2B9H10)-3,3′-Co(1′,2′-C2B9H10)-8,8′-μ-NH-CH2-CH(OH)-CH2-8″,8′″-μ-NH-(1″,2″-C2B9H10)-3″,3′″-Co(1′″,2′″-C2B9H10)] [GB-24]",IC50,[4]; [10],160 nM
"[(8-((C6H5CH2OCH2)2(HOCH2)C-CH2O-(CH2-CH2O)2)-1,2-C2B9H10)(1′,2′-C2B9H11)-3,3′-Co]Na [GB-55]",IC50,[4]; [10],120 nM
"[1,2,3,4-((1,2-C2B9H10)-3,3′-Co(1′,2′-C2B9H11)-8-(OCH2CH2)2O)4-calix[4]arene]Na4 [GB-75]",IC50,[4]; [10],91 nM
"[(8-((4-C6H5)-C6H4O-(CH2-CH2O)2)-1,2-C2B9H10)(1′,2′-C2B9H11)-3,3′-Co]Na [GB-44]",IC50,[4]; [10],270 nM
"[(1,2-C2B9H10)-3,3′-Co(1′,2′-C2B9H11)-8-(OCH2CH2)2O-D,L-CH(C6H5)CH(C6H5) CH(C6H5)(OCH2CH2)2-8″-O-(1″,2″-C2B9H10)-3″,3′″-Co(1′″,2′″-C2B9H11)]Na2 [GB-35]",IC50,[4]; [10],200 nM
"[8,8′-μ-((4-C6H5)-1,2-C6H3)-(1,2-C2B9H10)(1′,2′-C2B9H10)-3,3′-Co]Na [GB-28]",IC50,[4]; [10],290 nM
"[8,8′-μ-((4-CH3)(5-CH3)-1,2-C6H4)-(1,2-C2B9H10)(1′,2′-C2B9H10)-3,3′-Co]Na [GB-30]",IC50,[4]; [10],680 nM
"[(8-Cl-1,2-C2B9H10)(8′-Cl-1′,2′-C2B9H10)-3,3′-Co]Na [GB-96]",IC50,[4]; [12],1080 nM
"[(8-(2,6-(CH2C6H5)2-C6H3O-(CH2-CH2O)2)-1,2-C2B9H10)(1′,2′-C2B9H11)-3,3′-Co]Na [GB-87]",IC50,[4]; [10],260 nM
